Experiments:
[1] = tested on: human poorly differentiated lung cancer squamous cell carcinoma cell line Oka-c-1; test: In vitro efficacy (Alamar Blue or MTS, 5 days) in Oka-c-1; type: cell-based; details: 120 h, Oka-c-1, 5 days
Method: (§1) The in vitro efficacy of ADC-coupled drugs was evaluated using an experimental model of two human tumor cell lines (human poorly differentiated lung cancer squamous cell carcinoma cell line Oka-c-1, human lung squamous cell carcinoma cells SK-MES-1).
(§2) Inoculate a certain number of tumor cells in a 96-well plate, add the gradient-diluted test antibody and the corresponding ADC drug to the cells, treat for 5 days, measure the cell viability using Alamar Blue or MTS, and evaluate the inhibitory effect of the test antibody, the ADC and the small molecule drug d3 on the tumor cell lines by calculating the IC50. The starting concentration of the antibody drug was 500 nM, and the dilution was 7-fold, totaling 7 concentration points, and the treatment was carried out for 5 days.

[2] = tested on: human lung squamous cell carcinoma cells SK-MES-1; test: In vitro efficacy (Alamar Blue or MTS, 5 days) in SK-MES-1; type: cell-based; details: 120 h, SK-MES-1, 5 days
Method: as §1, §2

Which IC50 [1] does the source give for `CC[C@@]1(O)C(=O)OCc2c1cc1n(c2=O)Cc2c-1nc1cc(F)c(C)c3c1c2[C@@H](NC(=O)[C@H](C)O)CC3` [d3] here?
The IC50 was 0.846 nM.

And the IC50 [2]?
Its IC50 is 2.04 nM.

Reference: US12577325B2, “Bispecific antibody-camptothecin drug conjugate and pharmaceutical use thereof” (SYSTIMMUNE, INC., priority 2021, dated 2026)
